Test results: patent publication US20250270316A1, “PHARMACEUTICAL COMBINATION AND USE THEREOF” (TIANJIN LIPOGEN TECHNOLOGY CO., LTD, priority 2021, published 2025)
Several values for one entry are separate records, joined by “and”; a condition that tells them apart may be missing. Identical values can stand only once.

What was measured:
Type in all cases: in vivo, mouse
[1] = tested on: colorectal cancer MC38 humanized PD1; experiment: Example 10.1: MC38 humanized PD1 xenograft model, marketed PD-1 inhibitors and Imiquimod; conditions: i.t. every other day x3; PD-1 antibody 10 mg/kg, Imiquimod (LPG2005) 5 mg/kg, combinations as single preparation
Procedure: (§1) Tumor cells were cultured and passaged, cells were collected at the logarithmic phase, and formulated into a concentration of (1.0×10^7) per milliliter of cell suspension with 0.1 ml (with a cell number of 1.0×10^6) being injected into the right flank of the mice, the tumor grew to a diameter of about 5 mm within about 10 days, and the model was successfully established, they were randomly divided into 8 groups.
(§2) Tumor weight inhibitory rate=[1−average tumor weight of experimental group (G2/G3/G4)/average tumor weight of negative control group G1)]×100%.
10.1 Anti-Tumor Effect of Composite Preparation (Single Dosage Form) Consisting of a Marketed PD-1 or PD-L1 Inhibitor and a TLR7/8 Agonist Imiquimod
After a colorectal cancer MC38 humanized PD1 subcutaneous xenograft tumor model was successfully established, random grouping was performed, and each group had 6-8 mice, which were administered once every two days with a total of 3 times.

[2] = tested on: colorectal cancer MC38 humanized CD274 cell; experiment: Example 10.2: MC38 humanized CD274 xenograft model, Durvalumab or RB0005 and Imiquimod; conditions: i.t. every other day x3; Durvalumab or RB0005 1 mg/kg, Imiquimod (LPG2005) 5 mg/kg, combinations as single preparation
Procedure: as §1, §2
(§3) After a colorectal cancer MC38 humanized CD274 cell subcutaneously-Xenograft tumor model in mice was successfully established, random grouping was performed, and each group had 6-8 mice, which were administered once every two days with a total of 3 times.

[3] = tested on: colorectal cancer MC38 humanized CD274 cell; experiment: Example 8: MC38 humanized CD274 xenograft model, RB0005 and Gardiquimod; conditions: i.t. every other day x3; RB0005 1 mg/kg, Gardiquimod 5 mg/kg, combination as single preparation
Procedure: as §1, §2
Anti-Tumor Effect of Pharmaceutical Combination Consisting of PD-L1 Inhibitor RB0005 and Other Types of TLR7/8 Agonists (Gardiquimod)
as §3

[4] = tested on: colorectal cancer MC38; experiment: Example 3: MC38 xenograft tumor model in mice, RB0005 and different doses of Imiquimod; conditions: i.t. every other day x3; RB0005 1 mg/kg (G2), Imiquimod 5 mg/kg (G5), both in single dosage form (G8)
Procedure: as §1, §2
A colorectal cancer MC38 Xenograft tumor model in mice was used to test an anti-tumor effect of a pharmaceutical combination consisting of a PD-L1 inhibitor RB0005 and different doses of TLR7/TLR8 agonists Imiquimod, that is, the inhibitory effect on the growth of subcutaneous xenograft tumor in mice.
After a subcutaneous xenograft tumor model in mice was successfully established, random grouping was performed, and each group had 8 mice, which were administered once every two days.

[5] = tested on: colorectal cancer MC38 humanized CD274 cell; experiment: Example 7: MC38 humanized CD274 xenograft model, intraperitoneal vs intratumoral administration; conditions: every other day x3
Procedure: as §1, §2, §3

[6] = tested on: colorectal cancer MC38 humanized CD274 cell; experiment: Example 12: MC38 humanized CD274 xenograft model, sequential administration of Imiquimod and RB0005; conditions: i.t.; RB0005 1 mg/kg, Imiquimod 5 mg/kg; G4 sequential: agonist first, PD-L1 inhibitor after 48 h, total of 3 times
Procedure: as §1, §2

[7] = tested on: colorectal cancer CT26 humanized CD274 cell; experiment: Example 11: CT26 humanized CD274 xenograft model, LPG2006; conditions: CT26.sgcd274 CD274, i.t. every other day x3, Imiquimod 5 mg/kg
Procedure: as §1, §2
Combination LPG2006 (Single Dosage Form) Consisting of PD-L1 Inhibitor RB0005 and Imiquimod, CT26 Tumor Model
After a colorectal cancer CT26 humanized CD274 cell subcutaneous xenograft tumor model in mice was successfully established, random grouping was performed, and each group had 6-8 mice, which were administered once every two days with a total of 3 times.

[8] = tested on: colorectal cancer MC38 humanized CD274 cell; experiment: Example 6: MC38 humanized CD274 xenograft model, LPG2006 single dosage form with different Imiquimod doses; conditions: i.t. every other day x3
Procedure: as §1, §2, §3

[9] = tested on: colorectal carcinoma MC38 (humanized PD-1 model); experiment: Example 2: humanized PD-1 MC38 subcutaneous xenograft tumor model in mice, RB0004 and Imiquimod; conditions: Imiquimod 5 mg/kg i.t., RB0004 10 mg/kg i.p.
Procedure: as §1, §2
The anti-tumor effect of a pharmaceutical combination composed of PD-1 inhibitor RB0004 and a TLR7/TLR8 agonist Imiquimod was tested using a xenograft tumor model, i.e., the inhibitory effect on the growth of subcutaneous xenograft tumor in mice.
After successfully establishing a humanized PD-1 subcutaneous xenograft tumor model of colorectal carcinoma MC38 in mice, they were randomly grouped with 8 mice per group and administered once every two days.

[10] = tested on: colorectal carcinoma MC38; experiment: Example 1: MC38 subcutaneous xenograft tumor model in mice, RB0005 and Imiquimod; conditions: as of the end; i.t. every other day; RB0005 1 mg/kg, Imiquimod 5 mg/kg, combination in single dosage form; tumor volume >2000 mm^3 counted as death
Procedure: C57/BL6JNifdc mouse, female, body weight of 17-22 g, aged 6-8 weeks, SPF grade, purchased from Beijing Vital River Laboratory Animal Technology Co., Ltd. [Experimental Animal Quality Certificate No.: SCXK (Beijing) 2016-0006].
as §1, §2
The anti-tumor effect of a pharmaceutical combination composed of PD-L1 inhibitor RB0005 and a TLR7/TLR8 agonist Imiquimod (LPG2005) was tested using a xenograft tumor model, i.e., the inhibitory effect on the growth of subcutaneous xenograft tumor in mice.
After successfully establishing a subcutaneous xenograft tumor model of colorectal carcinoma MC38 in mice, it was randomly grouped with 6-8 mice per group. The mice were administered once every two days, with a total of three times followed by observation until 15 days.

[11] = tested on: colorectal cancer MC38 humanized CD274 cell; experiment: Example 9: MC38 humanized CD274 xenograft model, RB0005 and Resiquimod; conditions: i.t. every other day x3; RB0005 1 mg/kg, Resiquimod 5 mg/kg, combination as single preparation
Procedure: as §1, §2
Anti-Tumor Effect of Pharmaceutical Combination Consisting of PD-L1 Inhibitor RB0005 and Other Types of TLR7/8 Agonists (Resiquimod)
as §3

[12] = intratumoral injection, RB0005 1 mg/kg (G4), Imiquimod 5 mg/kg (G6), LPG2006 single preparation (G8)
[13] = Imiquimod 6.32 mg/kg (G4), with RB0005 1 mg/kg in single dosage form (G7)
[14] = Imiquimod 20 mg/kg (G5), with RB0005 1 mg/kg in single dosage form (G8)
[15] = RB0005 1 mg/kg (G2), Imiquimod 2 mg/kg (G3), both in single dosage form (G6)

Toripalimab: marketed PD-1 inhibitor monoclonal antibody
IRTW (tumor weight inhibition rate) [1]: 49.7% | Tumor Weight [1]: 0.92 g

Durvalumab: marketed anti PD-L1 monoclonal antibody
IRTW (tumor weight inhibition rate) [2]: 21% and 20.9% | Tumor Weight [2]: 1.13 g

CCNCc1nc2c(N)nc3ccccc3c2n1CC(C)(C)O [Gardiquimod]
IRTW (tumor weight inhibition rate) [3]: 42% and 41.6% | Tumor Weight [3]: 1.81 g

CC(C)Cn1cnc2c(N)nc3ccccc3c21 [Imiquimod]
IRTW (tumor weight inhibition rate) [4]: 23.35% | Tumor Weight [4]: 2.70 g | Tumor Weight ([5]; intraperitoneal injection, RB0005 1 mg/kg (G3), Imiquimod 5 mg/kg (G5), LPG2006 single preparation (G7)): 3.74 g | IRTW (tumor weight inhibition rate) [5, 12]: 23.5% | Tumor Weight [5, 12]: 2.6 g | IRTW (tumor weight inhibition rate) [6]: 34.8% | Tumor Weight [6]: 1.30 g | IRTW (tumor weight inhibition rate) ([7]; LPG2006 (RB0005 1 mg/kg + LPG2005 5 mg/kg)): 42% | Tumor Weight ([7]; RB0005 1 mg/kg, LPG2006 single preparation): 1.05 g | IRTW (tumor weight inhibition rate) [8, 13]: 58.5% | Tumor Weight [8, 13]: 2.0 g | IRTW (tumor weight inhibition rate) [8, 14]: 47.4% | Tumor Weight [8, 14]: 1.8 g | IRTW (tumor weight inhibition rate) [8, 15]: 27.5% | Tumor Weight [8, 15]: 2.5 g | IRTW (tumor weight inhibition rate) ([9]; every other day x3): 42.71% | Tumor Weight ([9]; every other day x3): 3.62 g | survival rate in mice ([9]; as of the end, every other day x3, combination in separate dosage forms): 40% | growth of the tumor volume ([9]; vs solvent control): slower than that in the solvent control group | survival rate in mice [10]: 50% | IRTW (tumor weight inhibition rate) [2]: 48.8% | Tumor Weight [2]: 0.73 g | Tumor Weight [1]: 1.93 g

CCOCc1nc2c(N)nc3ccccc3c2n1CC(C)(C)O [Resiquimod]
IRTW (tumor weight inhibition rate) [11]: 40% and 40.2% | Tumor Weight [11]: 1.81 g

Sintilimab: marketed PD-1 inhibitor monoclonal antibody
IRTW (tumor weight inhibition rate) [1]: 3.9% | Tumor Weight [1]: 1.47 g

B1: Tislelizumab: marketed PD-1 inhibitor monoclonal antibody (antibody, chains of the INN, looked up)
heavy: QVQLQESGPGLVKPSETLSLTCTVSGFSLTSYGVHWIRQPPGKGLEWIGVIYADGSTNYNPSLKSRVTISKDTSKNQVSLKLSSVTAADTAVYYCARAYGNYWYIDVWGQGTTVTVSSASTKGPSVFPLAPCSRSTSESTAALGCLVKDYFPEPVTVSWNSGALTSGVHTFPAVLQSSGLYSLSSVVTVPSSSLGTKTYTCNVDHKPSNTKVDKRVESKYGPPCPPCPAPPVAGGPSVFLFPPKPKDTLMISRTPEVTCVVVAVSQEDPEVQFNWYVDGVEVHNAKTKPREEQFNSTYRVVSVLTVVHQDWLNGKEYKCKVSNKGLPSSIEKTISKAKGQPREPQVYTLPPSQEEMTKNQVSLTCLVKGFYPSDIAVEWESNGQPENNYKTTPPVLDSDGSFFLYSKLTVDKSRWQEGNVFSCSVMHEALHNHYTQKSLSLSLG
light: DIVMTQSPDSLAVSLGERATINCKSSESVSNDVAWYQQKPGQPPKLLINYAFHRFTGVPDRFSGSGYGTDFTLTISSLQAEDVAVYYCHQAYSSPYTFGQGTKLEIKRTVAAPSVFIFPPSDEQLKSGTASVVCLLNNFYPREAKVQWKVDNALQSGNSQESVTEQDSKDSTYSLSSTLTLSKADYEKHKVYACEVTHQGLSSPVTKSFNRGEC
IRTW (tumor weight inhibition rate) [1]: 61.4% | Tumor Weight [1]: 0.59 g

B2: Camrelizumab: marketed PD-1 inhibitor monoclonal antibody (antibody, chains of the INN, looked up, V domains shown)
VH: EVQLVESGGGLVQPGGSLRLSCAASGFTFSSYMMSWVRQAPGKGLEWVATISGGGANTYYPDSVKGRFTISRDNAKNSLYLQMNSLRAEDTAVYYCARQLYYFDYWGQGTTVTVSS
VL: DIQMTQSPSSLSASVGDRVTITCLASQTIGTWLTWYQQKPGKAPKLLIYTATSLADGVPSRFSGSGSGTDFTLTISSLQPEDFATYYCQQVYSIPWTFGGGTKVEIK
IRTW (tumor weight inhibition rate) [1]: 19.6% | Tumor Weight [1]: 1.23 g
